The source of these data is patent publication US9487566B2, “Method for purifying protein” (KYOWA HAKKO KIRIN CO., LTD, priority 2011, dated 2016).

The subject of data set [1] is protease. As to conditions: glycine 0.5 mol/L or arginine 0.4 mol/L final, 25° C. for 6 days.
In data set [2] the test system is neuraminidase. In words: Capillary electrophoresis of Erythropoietin from culture fluid held with amino acids (bound sialic acids). Format: biochemical. As to conditions: 1 mol/L amino acid solution mixed in equivalent amount, 25° C. for 7 days, compared with purified water / initiation. On the procedure:
Purified water, 1 mol/L alanine solution, 1 mol/L arginine solution, or 1 mol/L glycine solution was mixed with the culture fluid containing Erythropoietin in an equivalent amount, respectively and then held at 25° C. for 7 days. Thereafter, Erythropoietin was purified using an anti-Erythropoietin antibody-immobilized affinity chromatography column, and the number of sialic acids binding to Erythropoietin was measured by capillary electrophoresis [Biol. Pharm. Bull. 33(9) 1596-1599 (2010)].

In data set [3] the test system is neuraminidase. In words: Neuraminidase activity after addition of amino acids to Antithrombin eluate (enzyme assay). The class given is biochemical, CHO cell. On the procedure:
The Antithrombin concentration and the neuraminidase activity in the washing fraction before elution and in a particular range of eluate were measured by reversed-phase HPLC method [J. Chromatography B, 662, 209 (1994)] and enzyme assay [Glycobiology, 3, 455 (1993)], respectively.
Arginine hydrochloride or glycine of a final concentration of 0 to 500 mmol/L was added to the aqueous solution containing Antithrombin obtained in the elution process of Comparative Example 1. The neuraminidase activity in each solution was measured in the same manner as in Example 1.

The test system of data set [4] is Neuraminidase (manufactured by Nacalai Tesque). The following applies: final concentration 1.0 mol/L, neuraminidase 0.0005 U/mL, 37° C. for 3 hours. On the procedure: As a control group, purified water was added in the same amount as the neuraminidase. Glycine was added at a final concentration of 1.0 mol/L, or purified water as a control, and held at 37° C. for 3 hours.

Data set [5] can be described thus: Storage stability of purified Protein S by SDS-PAGE. Format: physicochemical. As to conditions: held at 37° C. for 3 days vs frozen at −20° C. On the procedure:
The Protein S-Example 16 and the Protein S-Comparative Example 3 were held at 37° C. for 3 days, or they were also frozen at −20° C., respectively.

In the case of `N=C(N)NCCC[C@H](N)C(=O)O` [arginine], the “conversion of Protein S into the cleaved form” value in data set [1] is given as “conversion of Protein S into the cleaved form was inhibited”. In data set [2], the “number of sialic acids binding to Erythropoietin after holding” value (“number of sialic acids binding” below) is on record as “the number of bound sialic acids was equivalent”. The “relative neuraminidase activity (activity at 0 mmol/L amino acid regarded as 1.0)” value was “about 0.2” in data set [3] (addition of 100 mmol/L) and 0 in data set [3] (addition of 200 mmol/L or more, below the detection limit).

On to `NCC(=O)O` [glycine], for which the “conversion of Protein S into the cleaved form” value in data set [1] was “conversion of Protein S into the cleaved form was inhibited”. Besides, the “number of sialic acids binding” value in data set [2] was “the number of bound sialic acids was maintained”. The “relative neuraminidase activity (activity at 0 mmol/L amino acid regarded as 1.0)” value is on record as “about 0.2” in data set [3] (addition of 100 mmol/L) and 0 in data set [3] (addition of 300 mmol/L or more, below the detection limit). Besides, the “electrophoretic profile of Protein S (basic shift by loss of sialic acid)” value in data set [4] is reported as “major bands were found in a more acidic region than the band of purified water-added one”.

For the molecule “Protein S-Comparative Example 3: Protein S obtained by the method described in Comparative Example 3 (purified without using the mixed mode carrier)”, the “change on storage (cleaved form, SDS-PAGE)” value in data set [5] is “the cleaved form was increased”.

On to `C[C@H](N)C(=O)O` [alanine], for which the “number of sialic acids binding” value in data set [2] is recorded as “the number of bound sialic acids was maintained”.

Regarding “Protein S-Example 16: Protein S obtained by the method described in Example 16 (purified using the mixed mode carrier)”, in data set [5], the “change on storage (cleaved form, SDS-PAGE)” value was “no change”.
